Reference: patent US20100298166A1, “CELL POPULATIONS FOR POLYPEPTIDE ANALYSIS AND USES OF SAME” (priority 2008, published 2010)
Read-outs that look alike come from different tables or passages of the source. Numbered stars: 1 amine (or outer) side, 2 acyl side, 3 side chain; on linkers, the order of the positions; unused ones are H or OH. Bridge positions count the residues as written; N and C are the ends. Square brackets hold non-standard residues; d marks the D form. Peptide text beside a SMILES is read from it. I, II: the chains in the order shown. Actinocin(9to1) = Cc1c2oc3c(C)ccc(C(=O)[*:1])c3nc-2c(C(=O)[*:2])c(N)c1=O; NMeV = CN[C@H](C(=O)O)C(C)C; Sar = CNCC(=O)O

Key:
Assay type in all cases: cell-based, human
[1] = system: TOP1; assay: Immunoblots with anti-TOP1 and anti-GFP after CPT
Protocol: Immunoblots against 20 selected proteins: Total cell lysates were prepared with RIPA buffer (Pierce) according to manufacturer's instructions. The protein concentrations were determined by BCA protein assay kit (Thermo scientific). Equal amounts of proteins were resolved on SDS-PAGE and subjected to immunoblotting analysis by using the antibodies listed below. The intensity of protein bands was quantified by using ImageJ software.
Anti-Myosin IIA (M8064) and anti-GFP (11814460001) antibodies were from Sigma and Roche, respectively.

[2] = system: YFP tagged proteins in H1299 cells; assay: Temporal profiles of total fluorescence and cell-cell variability of YFP tagged proteins in response to drug
Protocol: (§1) Long period time-lapse microscopy: Time-lapse movies were obtained (at 20× magnification) as described by Sigal et al. (Sigal, Milo et al. 2006, supra) with an automated, incubated (including humidity and CO2 control) Leica DMIRE2 inverted fluorescence microscope and an ORCA ER cooled CCD camera (Hamamatsu Photonics). The system was controlled by ImagePro5 Plus (Media Cybernetics) software which integrated time-lapse acquisition, stage movement, and software based auto-focus. During the experiment, cells were grown and visualized in 12-well coverslip bottom plates (MatTek) coated with […] fibronectin (Sigma). For each well time lapse movies were obtained at four fields of view. Each movie was taken at a time resolution of 20 minutes and was filmed for at least three days (over 200 time points). Each time point included three images—phase contrast, red and yellow fluorescence.
Image analysis of time lapse movies: A custom written image analysis tool was used developed using the Matlab image processing toolbox environment (Mathworks, Natick, Mass.). The main steps include; image correction, segmentation, tracking of the cells and automated identification of cell phenotypes (mitosis and cell death). Image background correction (flat field correction and background subtraction) was carried out as previously described (Sigal, Milo et al. 2006, supra). No significant bleaching was observed (on average less than 3% over the duration of the experiment). […] The main steps of the segmentation process are: 1) Differentiation between cells and background by global image threshold using Otsu's method (Otsu 1979, IEEE Transactions on Systems, Man, and Cybernetics 9(1): 62-66); 2) Segmentation of neighboring cells by applying the seeded watershed segmentation algorithm. […]
Protein dynamics clustering: The five average population dynamics profiles depicted in FIG. 8B were generated in the following manner: The levels of each protein were smoothed using a median filter and linearly scaled between −1 and 1. The distance between every pair of proteins was measured in terms of Pearson correlation and clustering was performed using a k-means algorithm (reproducibility of results using different seeds is >99%). […]

[3] = system: H1299 non-small cell lung carcinoma cell line; assay: Time-lapse microscopy of cell death, motility and growth arrest after drug addition; details: CPT 10 uM
Protocol: as §1
Drug Materials: Camptothecin (CPT; C9911 Sigma), was dissolved in DMSO (hybri-max, D2650 Sigma) to achieve a stock solution of 10 mM. In each experiment, drug was diluted to 10 μM in a transparent growth medium (RPMI, X PenStrep, 10% FCS, w/o riboflavin, w/o phenol red, Bet Haemek). Growth medium (2 ml) was replaced by the diluted drug (2 ml) under the microscope. […]

[4] = system: TOP1; details: for effects on TOP1 (nucleolar exit, degradation, cytoplasmic accumulation): other DNA damaging drugs
Protocol: as §1
(§2) Drug Materials: Camptothecin (CPT; C9911 Sigma), was dissolved in DMSO (hybri-max, D2650 Sigma) to achieve a stock solution of 10 mM. In each experiment, drug was diluted to 10 μM in a transparent growth medium (RPMI, X PenStrep, 10% FCS, w/o riboflavin, w/o phenol red, Bet Haemek). Growth medium (2 ml) was replaced by the diluted drug (2 ml) under the microscope. The same procedure was carried out for the following drugs: Etoposide (E1383 Sigma), diluted to 33.3 μM and for Cisplatinum (P4394 Sigma) diluted to 40 μM. The stock solution for ActD (A1410 Sigma) was 1 mg/ml and was diluted to 1 μg/ml.
Image analysis of time lapse movies: A custom written image analysis tool was used developed using the Matlab image processing toolbox environment (Mathworks, Natick, Mass.). The main steps include; image correction, segmentation, tracking of the cells and automated identification of cell phenotypes (mitosis and cell death). Image background correction (flat field correction and background subtraction) was carried out as previously described (Sigal, Milo et al. 2006, supra). […] The main steps of the segmentation process are: 1) Differentiation between cells and background by global image threshold using Otsu's method (Otsu 1979, IEEE Transactions on Systems, Man, and Cybernetics 9(1): 62-66); 2) Segmentation of neighboring cells by applying the seeded watershed segmentation algorithm. Seeds were obtained by smoothening the red intensity image and usage of bright nuclei as cell seeds (by identifying local maxima)—one seed per cell; 3) Nuclei segmentation following cell segmentation; each cell was independently stretched between zero and one and a fixed threshold was used to differentiate between the cytoplasm and the nuclei; 4) Tracking of cells was performed by analyzing the movie from end to start and linking each segmented cell to the cell in the previous image with the closest centroid; 5) The automated cell death identification algorithm utilizes the morphological changes correlated with dying cells: rounding followed by blebbing and an explosion of the outer membrane or its collapse. An artificial neural network (ANN) algorithm was constructed that could identify each one of these morphological patters similar to the method previously described in (Eden 2005, IEEE, Transactions on Medical Imaging 24: 1011-1024). Briefly, two sets of images were constructed: The first contained 400 cell images in different stages of cell death and the second contained 400 live cell images. For each image, a collection of high-level image features was computed. […] This process transforms each image into a multi dimensional vector of features.

[5] = system: thyredoxin and thyredoxin reductase; assay: Nuclear/cytoplasmic localization changes of tagged proteins following drug addition
Protocol: as §1
Image analysis of time lapse movies: A custom written image analysis tool was used developed using the Matlab image processing toolbox environment (Mathworks, Natick, Mass.). […]
Nuclear localization changes following drug addition: The localization of each protein across the experiment was analyzed and the ratio of cytoplasmic to nuclear fluorescence was followed as a function of time. […] Both rapid and slow localization changes between the cytoplasm and the nucleus were detected (FIGS. 14A-C).

[6] = system: nucleolar proteins; assay: Quantitation of nucleolar translocations of tagged proteins; details: 1 μg/ml
Protocol: as §2
Then, for each of the selected clones, the present inventors calculated the ratio of fluorescence intensity between the top and bottom ten percent pixels in individual nuclei and averaged over the population. Clones with a max/min change of over 20 percent in this average during the experiment were inspected manually to verify the source of change in pixel intensity distribution and were classified as clones showing nucleolar translocation.
Finally, to quantify the extent and direction (nucleoli to nucleoplasm or vise versa) of the translocation, the present inventors calculated the ratio between mean fluorescence intensity of nucleoli vs. nucleoplasm (Rncll/nuc) at the two time points were the max/min ratio was maximized and minimized. […]

[7] = system: DDX5; assay: Bimodal behavior of tagged DDX5 in individual cells in response to drugs; details: Etoposide 33.3 μM, Cis-platinum 40 μM
Protocol: as §2
Determination of ‘bimodal’ behaviors: The coefficient of variance (CV defined as the ration between the std between cells and the mean) was measured for 400 proteins for 47 hours following addition of CPT (at a 20 minute resolution) (see FIGS. 13A-B). All CVs were normalized to average 1 (CV(i,j)/mean(mean(CV)) where i is protein number (i=1 . . . 400) and j is timepoint (j=1 . . . 141)). All proteins deviating 3 standard deviations from the average normalized CV were considered as ‘bimodal’ candidates (N=59). Following manual inspection, 30 of these proteins listed in Table 4 were denoted as bimodal.

CC[C@@]1(O)C(=O)OCc2c1cc1n(c2=O)Cc2cc3ccccc3nc2-1 [CPT, Camptothecin]
time within which most TOP1 is degraded [1]: ≤ 4 h
largest changes in fluorescence ([2]; CPT 10 uM): about five
median dynamic range of response, change in fluorescence ([2]; CPT 10 uM): 1.3 fold
proteins showing a decrease in intensity in response to the drug ([2]; CPT 10 uM, 48 hours tracking): about 70%
increase of cell-cell variability (noise) following drug addition, on average ([2]; std between cells divided by mean): 30%
time to loss of motility and growth arrest after drug addition [3]: about 10 hours
cells showing cell rounding and blebbing (morphological correlates of cell death) ([3]; after 36 hours): about 15%
timescale of decrease of total cellular fluorescence of tagged TOP1 ([4]; CPT): under an hour
nuclear exit of tagged TOP1 ([4]; etoposide at equivalently lethal dose, CPT at several doses): exits from the nucleus to the cytoplasm in a CPT dose dependent manner
timescale of fluorescence accumulation in the cytoplasm in the TOP1 tagged clone ([4]; following CPT addition): ~5 h
time for TOP1 levels in the nucleoli to drop after drug addition ([4]; tagged TOP1, individual cells): less than 2 minutes
time to increase in nuclear/cytoplasmic ratio of thyredoxin and thyredoxin reductase ([5]; after drug addition): ≤ 8 h
proteins showing significant change in nuclear localization (>20% change in cytoplasm/nuclear fluorescence ratio) ([5]; all tagged proteins, after CPT addition): about 1%

Cc1c2oc3c(C)ccc(C(=O)N[C@@H]4C(=O)N[C@H](C(C)C)C(=O)N5CCC[C@H]5C(=O)N(C)CC(=O)N(C)[C@@H](C(C)C)C(=O)O[C@@H]4C)c3nc-2c(C(=O)N[C@@H]2C(=O)N[C@H](C(C)C)C(=O)N3CCC[C@H]3C(=O)N(C)CC(=O)N(C)[C@@H](C(C)C)C(=O)O[C@@H]2C)c(N)c1=O [actinomycinD, actinomycin-D] (I: T[dV]P[Sar][NMeV] / II: T[dV]P[Sar][NMeV]; ester I:1-I:C, II:1-II:C; linker I:N-II:N via Actinocin(9to1))
proteins with nucleolar dynamics similar to those seen with CPT [6]: 4 out of 5

N.N.[Cl][Pt][Cl] [cisplatin, Cisplatinum]
bimodal behavior of tagged DDX5 [7]: did not show bimodal behavior
effects on TOP1 (nucleolar exit, degradation, cytoplasmic accumulation) [4]: did not show any of these effects on TOP1

COc1cc([C@@H]2c3cc4c(cc3[C@@H](O[C@@H]3O[C@@H]5CO[C@@H](C)O[C@H]5[C@H](O)[C@H]3O)[C@H]3COC(=O)[C@H]23)OCO4)cc(OC)c1O [etoposide, Etoposide]
bimodal behavior of tagged DDX5 [7]: did not show bimodal behavior
nuclear exit of tagged TOP1 [4]: does not occur
effects on TOP1 (nucleolar exit, degradation, cytoplasmic accumulation) [4]: did not show any of these effects on TOP1
